Laboratory results published in ChEMBL document CHEMBL1201862, “PubChem BioAssay data set” (2004).
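Results reflect a 48-hour exposure of cells in 96-well plates to compound at five concentrations. GI50: concentration for 50% inhibition of growth.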 Calls of active or inactive are those of the source. No stated cut-off is given here; in the data, active = GI50 up to about 1.1 µM and inactive = higher. Bridge positions count the residues as written; N and C are the ends. Square brackets hold non-standard residues; d marks the D form. Peptide text beside a SMILES is read from it. I, II: the chains in the order shown. * marks the point of attachment. Quinoxaline2carbonyl = O=C(c1cnc2ccccc2n1)*; NMeV = CN[CH](C(=O)O)C(C)C; NMeC = CN[CH](CS)C(=O)O

Experiments:
Assay in all cases: inhibition of tumour cell growth, NCI panel, 48 h
OVCAR-5 = tested on: OVCAR-5
SNB-75 = tested on: SNB-75
SK-MEL-5 = tested on: SK-MEL-5
IGROV-1 = tested on: IGROV-1
Malme-3M = tested on: Malme-3M
TK-10 = tested on: TK-10
RXF 393 = tested on: RXF 393
CAKI-1 = tested on: CAKI-1
MOLT-4 = tested on: MOLT-4
M14 = tested on: M14
COLO 205 = tested on: COLO 205
SK-OV-3 = tested on: SK-OV-3
SK-MEL-28 = tested on: SK-MEL-28
SW-620 = tested on: SW-620
MCF7 = tested on: MCF7
ACHN = tested on: ACHN
OVCAR-3 = tested on: OVCAR-3
NCI-H23 = tested on: NCI-H23
786-0 = tested on: 786-0
SR = tested on: SR

| Structure (SMILES) | GI50 (OVCAR-5) | GI50 (SNB-75) | GI50 (SK-MEL-5) | GI50 (IGROV-1) | GI50 (Malme-3M) | GI50 (TK-10) | GI50 (RXF 393) | GI50 (CAKI-1) | GI50 (MOLT-4) | GI50 (M14) | GI50 (COLO 205) | GI50 (SK-OV-3) | GI50 (SK-MEL-28) | GI50 (SW-620) | GI50 (MCF7) | GI50 (ACHN) | GI50 (OVCAR-3) | GI50 (NCI-H23) | GI50 (786-0) | GI50 (SR) |
| --- | --- | --- | --- | --- | --- | --- | --- | --- | --- | --- | --- | --- | --- | --- | --- | --- | --- | --- | --- | --- |
| O=C1C(S(=O)(=O)c2ccccc2)=C(CS(=O)(=O)c2ccccc2)[C@@H](OCc2ccccc2)[C@@H]1OCc1ccccc1 | 27.9 µM (inactive) | > 100 µM (inactive) | 18.2 µM (inactive) | 17.1 µM (inactive) | 17.6 µM (inactive) | 31.8 µM (inactive) | 13.9 µM (inactive) | 30.1 µM (inactive) | 16.9 µM (inactive) | 15.7 µM (inactive) | 25.8 µM (inactive) | 41.5 µM (inactive) | 18.1 µM (inactive) | 18.7 µM (inactive) | 27.4 µM (inactive) | 31.8 µM (inactive) | 12.5 µM (inactive) | 16.9 µM (inactive) | 26.4 µM (inactive) | 14.5 µM (inactive) |
| CC1(C)CCCOc2cccc(c2)OCCCC(C)(C)C1=O | > 100 µM (inactive) | 30.8 µM (inactive) | 18.4 µM (inactive) | 39.2 µM (inactive) | 27.6 µM (inactive) | > 100 µM (inactive) | 17.7 µM (inactive) | 46.2 µM (inactive) | 12.8 µM (inactive) | 33.9 µM (inactive) | 49.3 µM (inactive) | 33 µM (inactive) | 38.5 µM (inactive) | 27 µM (inactive) | 31 µM (inactive) | 36.8 µM (inactive) | 22 µM (inactive) | 31.8 µM (inactive) | 41.5 µM (inactive) | 34 µM (inactive) |
| CC1NC(=O)C(NC(=O)c2cnc3ccccc3n2)COC(=O)C(C(C)C)N(C)C(=O)C2CSSCC(C(=O)N(C)C(C(C)C)C(=O)OCC(NC(=O)c3cnc4ccccc4n3)C(=O)NC(C)C(=O)N2C)N(C)C1=O (stereo not given) (I: Quinoxaline2carbonyl-SA[NMeC][NMeV] / II: Quinoxaline2carbonyl-SA[NMeC][NMeV]; ester I:1-II:C, I:C-II:1; disulfide I:3-II:3; configuration not given here) | < 0.01 µM (active) | < 0.01 µM (active) | 0.0316 µM (active) | < 0.01 µM (active) | < 0.01 µM (active) | < 0.01 µM (active) | < 0.01 µM (active) | < 0.01 µM (active) | < 0.01 µM (active) | < 0.01 µM (active) | < 0.01 µM (active) | < 0.01 µM (active) | < 0.01 µM (active) | < 0.01 µM (active) | < 0.01 µM (active) | < 0.01 µM (active) | < 0.01 µM (active) | < 0.01 µM (active) | < 0.01 µM (active) | 0.114 µM (active) |
